Test results reported in patent US10543212B2, “Substituted amines for treating cardiac diseases” (Cardurion Pharmaceuticals, LLC, priority 2017, dated 2020).

What follows are compounds tested against T1, Full-length, GST-tagged, human CaMKIIδ (Homo sapiens, UniProt Q13557) (assay: CaMKIIδ binding assay (TR-FRET with BODIPY-labeled probe ligand)). Conditions: CaMKIIδ binding assay, results of Table 2.
T1 construct: Full-Length, Glutathione-S-Transferase(GST)-Tagged, Human CaMKIIδ was purchased from Carna Biosciences; purchased Carna Biosciences 02-111
Procedure, shortened: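 Compounds were tested as 4-fold, eight-point series for 1 hr at room temperature, and IC50 was obtained by logistic fitting against a 3 μM parent-compound control. Signal came from displacement of a 300 nM BODIPY ligand from 0.5 nM GST-CaMKIIδ, detected via Tb-anti-GST in calmodulin/Ca2+ (pH 7.6).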

T1 sequence (Q13557 1-478 isoform Q13557-12): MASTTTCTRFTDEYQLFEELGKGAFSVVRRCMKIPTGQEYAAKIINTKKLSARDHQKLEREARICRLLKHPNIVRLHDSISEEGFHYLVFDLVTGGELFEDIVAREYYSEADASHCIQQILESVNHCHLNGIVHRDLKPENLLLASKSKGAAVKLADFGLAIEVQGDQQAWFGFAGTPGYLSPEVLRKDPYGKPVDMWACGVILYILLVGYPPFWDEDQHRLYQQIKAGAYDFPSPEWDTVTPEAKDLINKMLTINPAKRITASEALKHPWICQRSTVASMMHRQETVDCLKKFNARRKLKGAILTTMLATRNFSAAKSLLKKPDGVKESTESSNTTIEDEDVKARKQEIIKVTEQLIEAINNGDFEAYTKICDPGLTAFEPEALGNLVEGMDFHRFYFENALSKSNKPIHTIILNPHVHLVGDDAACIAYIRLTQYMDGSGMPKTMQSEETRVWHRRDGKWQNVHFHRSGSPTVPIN

| Structure (SMILES) | IC50 [nM] |
| --- | --- |
| C[C@@H](Cn1cnnn1)Oc1cc(-c2cnc(Nc3ccc4c(c3)CCN4C(=O)C3CCN(C)CC3)nc2)ccc1Cl [Example 452, (S)-(5-((5-(3-((1-(1H-tetrazol-1-yl)propan-2-yl)oxy)-4-chlorophenyl)pyrimidin-2-yl)amino)indolin-1-yl) (1-methylpiperidin-4-yl)methanone] | < 10 |
| C[C@@H](Cn1cnnn1)Oc1cc(-c2cnc(Nc3cn(C4CCN(CCO)CC4)nc3C(F)(F)F)nc2)ccc1Cl [Example 535, (S)-2-(4-(4-((5-(3-((1-(1H-tetrazol-1-yl)propan-2-yl)oxy)-4-chlorophenyl)pyrimidin-2-yl)amino)-3-(trifluoromethyl)-1H-pyrazol-1-yl)piperidin-1-yl)ethan-1-ol] | < 10 |
| COc1ccc(N2CCN(CC(N)=O)CC2)cc1Nc1ncc(-c2ccc(Cl)c(O[C@@H](C)Cn3cnnn3)c2)cn1 [Example 579, (S)-2-(4-(3-((5-(3-((1-(1H-tetrazol-1-yl)propan-2-yl)oxy)-4-chlorophenyl)pyrimidin-2-yl)amino)-4-methoxyphenyl)piperazin-1-yl)acetamide] | < 10 |
| C[C@@H](Cn1cnnn1)Oc1cc(-c2cnc(Nc3cn(C4CCN(C5COC5)CC4)nc3C(F)(F)F)nc2)ccc1Cl [Example 562, (S)-5-(3-((1-(1H-tetrazol-1-yl)propan-2-yl)oxy)-4-chlorophenyl)-N-(1-(1-(oxetan-3-yl)piperidin-4-yl)-3-(trifluoromethyl)-1H-pyrazol-4-yl)pyrimidin-2-amine] | 10 to 100 |
| C[C@@H](Cn1cnnn1)Oc1cc(-c2cnc(Nc3cc4c(cc3Cl)CCNCC4)nc2)ccc1Cl [Example 507, (S)-N-(5-(3-((1-(1H-tetrazol-1-yl)propan-2-yl)oxy)-4-chlorophenyl)pyrimidin-2-yl)-8-chloro-2,3,4,5-tetrahydro-1H-benzo[d]azepin-7-amine] | < 10 |
| C[C@@H](Cn1cnnn1)Oc1cc(-c2cnc(Nc3cn(C4CCNCC4)nc3C(F)(F)F)nc2)ccc1Cl [Example 483, (S)-5-(3-((1-(1H-tetrazol-1-yl)propan-2-yl)oxy)-4-chlorophenyl)-N-(1-(piperidin-4-yl)-3-(trifluoromethyl)-1H-pyrazol-4-yl)pyrimidin-2-amine] | < 10 |
| COc1cc2c(cc1Nc1ncc(-c3ccc(Cl)c(O[C@@H](C)Cn4cnnn4)c3)cn1)C(=O)N(CCN(C)C)C2 [Example 512, (S)-6-((5-(3-((1-(1H-tetrazol-1-yl)propan-2-yl)oxy)-4-chlorophenyl)pyrimidin-2-yl)amino)-2-(2-(dimethylamino)ethyl)-5-methoxyisoindolin-1-one] | 10 to 100 |
| COc1cc2c(cc1Nc1ncc(-c3ccc(C#N)c(O[C@@H](C)Cn4cnnn4)c3)cn1)C(=O)N(C1CCC1)C2 [Example 442, (S)-2-((1-(1H-tetrazol-1-yl)propan-2-yl)oxy)-4-(2-((2-cyclobutyl-6-methoxy-3-oxoisoindolin-5-yl)amino)pyrimidin-5-yl)benzonitrile] | 10 to 100 |
| COc1ccc(N2CCCC(N3CCOCC3)C2)cc1Nc1ncc(-c2ccc(Cl)c(O[C@@H](C)Cn3cnnn3)c2)cn1 (stereo partly drawn) [Example 455, 5-(3-(((S)-1-(1H-tetrazol-1-yl)propan-2-yl)oxy)-4-chlorophenyl)-N-(2-methoxy-5-(3-morpholinopiperidin-1-yl)phenyl)pyrimidin-2-amine] | 10 to 100 |

Same assay, conditions: CaMKIIδ binding assay; activity class per Table 2

| Structure (SMILES) | IC50 [nM] |
| --- | --- |
| C[C@@H](Cn1cnnn1)Oc1cc(-c2cnc(Nc3cn(C4CC5(CNC5)C4)nc3OCC(F)(F)F)nc2)ccc1C(F)F [Example 949, (S)-5-(3-((1-(1H-tetrazol-1-yl)propan-2-yl)oxy)-4-(difluoromethyl)phenyl)-N-(1-(2-azaspiro[3.3]heptan-6-yl)-3-(2,2,2-trifluoroethoxy)-1H-pyrazol-4-yl)pyrimidin-2-amine] | < 10 |
| CC(C)c1nn(C2CC3(C2)CN(C2CCOCC2)C3)cc1Nc1ncc(-c2ccc(Cl)c(O[C@@H](C)Cn3cnnn3)c2)cn1 [Example 936, (S)-5-(3-((1-(1H-tetrazol-1-yl)propan-2-yl)oxy)-4-chlorophenyl)-N-(3-isopropyl-1-(2-(tetrahydro-2H-pyran-4-yl)-2-azaspiro[3.3]heptan-6-yl)-1H-pyrazol-4-yl)pyrimidin-2-amine] | < 10 |
| C[C@@H](Cn1cnnn1)Oc1cc(-c2cnc(Nc3cn(C4(C(=O)O)CCC4)nc3OCC(F)(F)F)nc2)ccc1Cl [Example 916, (S)-1-(4-((5-(3-((1-(1H-tetrazol-1-yl)propan-2-yl)oxy)-4-chlorophenyl)pyrimidin-2-yl)amino)-3-(2,2,2-trifluoroethoxy)-1H-pyrazol-1-yl)cyclobutane-1-carboxylic acid] | 10 to 100 |
| CC(Cn1cnnn1)Oc1cc(-c2cnc(Nc3cn(CC4(O)CCC(N5CCOCC5)CC4)nc3OCC(F)(F)F)nc2)ccc1Cl [Example 912, cis-1-((4-((5-(3-(((S)-1-(1H-tetrazol-1-yl)propan-2-yl)oxy)-4-chlorophenyl)pyrimidin-2-yl)amino)-3-(2,2,2-trifluoroethoxy)-1H-pyrazol-1-yl)methyl)-4-morpholinocyclohexan-1-ol] | < 10 |

Same assay, conditions: Table 2; CaMKIIδ binding assay, activity given as class A/B/C

| Structure (SMILES) | IC50 [nM] |
| --- | --- |
| C[C@@H](Cn1cnnn1)Oc1cc(-c2cnc(Nc3cn([C@H]4CC[C@@H](N5CCOCC5)CC4)nc3OC3COC3)nc2)ccc1Cl [Example 820, 5-(3-(((S)-1-(1H-tetrazol-1-yl)propan-2-yl)oxy)-4-chlorophenyl)-N-(1-(cis-4-morpholinocyclohexyl)-3-(oxetan-3-yloxy)-1H-pyrazol-4-yl)pyrimidin-2-amine] | < 10 |
| C[C@@H](Cn1cnnn1)Oc1cc(-c2cnc(Nc3ccnn3-c3ccccc3)nc2)ccc1Cl [Example 754, (S)-5-(3-((1-(1H-tetrazol-1-yl)propan-2-yl)oxy)-4-chlorophenyl)-N-(1-phenyl-1H-pyrazol-5-yl)pyrimidin-2-amine] | 10 to 100 |
| Cc1cc(Nc2ncc(-c3ccc(Cl)c(O[C@@H](C)Cn4cnnn4)c3)cn2)n(C)n1 [Example 751, (S)-5-(3-((1-(1H-tetrazol-1-yl)propan-2-yl)oxy)-4-chlorophenyl)-N-(1,3-dimethyl-1H-pyrazol-5-yl)pyrimidin-2-amine] | 10 to 100 |
| C[C@@H](Cn1cnnn1)Oc1cc(-c2cnc(Nc3cn([C@H]4CC[C@H](N5CCOCC5)CC4)nc3OC[C@@H]3CC3(F)F)nc2)ccc1Cl [Example 869] | < 10 |
| C[C@@H](Cn1cccn1)Oc1cc(-c2cnc(Nc3cn(C4CCN(C5CCOCC5)CC4)nc3OCC(F)(F)F)nc2)ccc1C#N [Example 782, (S)-2-((1-(1H-pyrazol-1-yl)propan-2-yl)oxy)-4-(2-((1-(1-(tetrahydro-2H-pyran-4-yl)piperidin-4-yl)-3-(2,2,2-trifluoroethoxy)-1H-pyrazol-4-yl)amino)pyrimidin-5-yl)benzonitrile] | < 10 |

Same assay, conditions: Table 2; activity class for CaMKIIδ

| Structure (SMILES) | IC50 [nM] |
| --- | --- |
| C[C@@H](Cn1cnnn1)Oc1cc(-c2cnc(Nc3cn(C4CCC(C(=O)O)CC4)nc3C(F)(F)F)nc2)ccc1Cl (stereo partly drawn) [Example 604, (S)-4-(4-((5-(3-((1-(1H-tetrazol-1-yl)propan-2-yl)oxy)-4-chlorophenyl)pyrimidin-2-yl)amino)-3-(trifluoromethyl)-1H-pyrazol-1-yl)cyclohexane-1-carboxylic acid] | 10 to 100 |
| CCN(CC)C(=O)Cn1cc(Nc2ncc(-c3ccc(Cl)c(O[C@@H](C)Cn4cnnn4)c3)cn2)c(C(F)(F)F)n1 [Example 606, (S)-2-(4-((5-(3-((1-(1H-tetrazol-1-yl)propan-2-yl)oxy)-4-chlorophenyl)pyrimidin-2-yl)amino)-3-(trifluoromethyl)-1H-pyrazol-1-yl)-N,N-diethylacetamide] | 10 to 100 |
| Cc1ncc(N2CC(N3CCOCC3)C2)cc1Nc1ncc(-c2ccc(Cl)c(O[C@@H](C)Cn3cnnn3)c2)cn1 [Example 605, (S)-5-(3-((1-(1H-tetrazol-1-yl)propan-2-yl)oxy)-4-chlorophenyl)-N-(2-methyl-5-(3-morpholinoazetidin-1-yl)pyridin-3-yl)pyrimidin-2-amine] | 10 to 100 |
| C[C@@H](Cn1cnnn1)Oc1cc(-c2cnc(Nc3cn(C4CCNC4)nc3C(F)(F)F)nc2)ccc1Cl (stereo partly drawn) [Example 618, 5-(3-(((S)-1-(1H-tetrazol-1-yl)propan-2-yl)oxy)-4-chlorophenyl)-N-(1-(pyrrolidin-3-yl)-3-(trifluoromethyl)-1H-pyrazol-4-yl)pyrimidin-2-amine] | < 10 |
| COc1cc(N2CCNCC2)cnc1Nc1ncc(-c2ccc(Cl)c(O[C@@H](C)Cn3cnnn3)c2)cn1 [Example 621, (S)-5-(3-((1-(1H-tetrazol-1-yl)propan-2-yl)oxy)-4-chlorophenyl)-N-(3-methoxy-5-(piperazin-1-yl)pyridin-2-yl)pyrimidin-2-amine] | 10 to 100 |
| COCCn1nc(C)cc1Nc1ncc(-c2ccc(Cl)c(O[C@@H](C)Cn3cnnn3)c2)cn1 [Example 655, (S)-5-(3-((1-(1H-tetrazol-1-yl)propan-2-yl)oxy)-4-chlorophenyl)-N-(1-(2-methoxyethyl)-3-methyl-1H-pyrazol-5-yl)pyrimidin-2-amine] | ≥ 100 |
| C[C@@H](Cn1cnnn1)Oc1cc(-c2cnc(Nc3cn(CCOC(F)(F)F)nc3C(F)(F)F)nc2)ccc1Cl [Example 727, (S)-5-(3-((1-(1H-tetrazol-1-yl)propan-2-yl)oxy)-4-chlorophenyl)-N-(1-(2-(trifluoromethoxy)ethyl)-3-(trifluoromethyl)-1H-pyrazol-4-yl)pyrimidin-2-amine] | 10 to 100 |
| C[C@@H](Cn1cnnn1)Oc1cc(-c2cnc(Nc3cn(CC4CN(C(=O)OC(C)(C)C)C4)nc3C(F)(F)F)nc2)ccc1Cl [Example 596, tert-butyl (S)-3-((4-((5-(3-((1-(1H-tetrazol-1-yl)propan-2-yl)oxy)-4-chlorophenyl)pyrimidin-2-yl)amino)-3-(trifluoromethyl) -1H-pyrazol-1-yl)methyl)azetidine-1-carboxylate] | ≥ 100 |
